We go through 21 molecules from patent US20240217960A1, “TRIAZINE DERIVATIVE AS COVALENT INHIBITORS OF PI3K” (UNIVERSITÄT BASEL, priority 2021, published 2024).

pIC50, pKi: −log10 of the molar value. Read-outs that look alike come from different tables or passages of the source.

The term pIC50 denotes the negative decadic logarithm of the IC50, by convention in mol/L. The pKi is the negative decadic logarithm of the Ki, by convention in mol/L. By kinact is commonly meant the rate constant of inactivation at saturating inhibitor.

Assay [1] relates to pSer473 of PKB/Akt in SKOV3 cells. Kind of assay: In Cell Western cellular PI3K signaling and IC50 determination. It counts as cell-based. As to conditions: Homo sapiens, SK-OV-3; SKOV3 cells; 2 or 3 independent measurements; read-out: IC50 pPKB (S473) SKOV3. The method, then:
Protein phosphorylation was detected as follows: pSer473 of PKB/Akt with rabbit polyclonal antibody from Cell Signaling Technology (CST) (#4058) by In-Cell Western assays, where 1.2×10^4 SKOV3 cells/well in 96-well plates were plated (Cell Carrier, PerkinElmer) for 24 hours (37° C., 5% CO2), as described in Ref. ^25.

The target of the next assay is p110α (PI3Kα) (Homo sapiens, UniProt P42336). Put plainly: Determination of kinetic constants (kinact, Ki) for p110α by LanthaScreen Technology. It counts as binding. As to conditions: for pKi: dissociation constant of the first reversible binding, read-out: Ki PI3Kα; for kinact: read-out: kinact PI3Kα; for kinact/KI: read-out: kinact/Ki PI3Kα.
Sequence of p110α (PI3Kα) (P42336 whole entry): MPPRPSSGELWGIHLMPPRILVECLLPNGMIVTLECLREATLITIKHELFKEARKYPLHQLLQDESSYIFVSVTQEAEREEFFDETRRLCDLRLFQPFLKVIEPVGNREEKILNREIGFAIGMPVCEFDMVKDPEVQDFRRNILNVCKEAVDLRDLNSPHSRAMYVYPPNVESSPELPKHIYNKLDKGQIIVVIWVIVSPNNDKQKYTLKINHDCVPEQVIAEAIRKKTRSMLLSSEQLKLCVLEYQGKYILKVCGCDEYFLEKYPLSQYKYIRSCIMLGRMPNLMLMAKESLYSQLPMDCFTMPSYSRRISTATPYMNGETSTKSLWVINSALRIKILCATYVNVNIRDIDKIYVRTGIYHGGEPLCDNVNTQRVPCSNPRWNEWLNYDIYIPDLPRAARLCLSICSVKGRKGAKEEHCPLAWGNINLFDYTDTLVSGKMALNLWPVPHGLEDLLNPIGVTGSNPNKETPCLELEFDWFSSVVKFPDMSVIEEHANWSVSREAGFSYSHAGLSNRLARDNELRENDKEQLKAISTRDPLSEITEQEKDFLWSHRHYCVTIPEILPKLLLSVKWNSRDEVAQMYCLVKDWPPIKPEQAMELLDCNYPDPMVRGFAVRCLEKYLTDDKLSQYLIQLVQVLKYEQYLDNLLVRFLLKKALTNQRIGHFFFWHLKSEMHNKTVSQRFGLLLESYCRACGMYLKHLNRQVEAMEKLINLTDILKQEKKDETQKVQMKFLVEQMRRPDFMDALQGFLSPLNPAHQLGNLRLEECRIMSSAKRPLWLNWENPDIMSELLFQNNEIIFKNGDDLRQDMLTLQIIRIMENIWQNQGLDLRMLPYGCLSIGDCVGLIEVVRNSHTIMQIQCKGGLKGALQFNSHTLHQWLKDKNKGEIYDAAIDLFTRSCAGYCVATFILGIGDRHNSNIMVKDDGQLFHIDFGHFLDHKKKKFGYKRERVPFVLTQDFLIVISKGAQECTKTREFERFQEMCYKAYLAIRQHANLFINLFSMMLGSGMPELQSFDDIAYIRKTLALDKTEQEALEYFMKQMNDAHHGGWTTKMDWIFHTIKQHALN
Sequence of p110α (PI3Kα) (P27986 whole entry partner): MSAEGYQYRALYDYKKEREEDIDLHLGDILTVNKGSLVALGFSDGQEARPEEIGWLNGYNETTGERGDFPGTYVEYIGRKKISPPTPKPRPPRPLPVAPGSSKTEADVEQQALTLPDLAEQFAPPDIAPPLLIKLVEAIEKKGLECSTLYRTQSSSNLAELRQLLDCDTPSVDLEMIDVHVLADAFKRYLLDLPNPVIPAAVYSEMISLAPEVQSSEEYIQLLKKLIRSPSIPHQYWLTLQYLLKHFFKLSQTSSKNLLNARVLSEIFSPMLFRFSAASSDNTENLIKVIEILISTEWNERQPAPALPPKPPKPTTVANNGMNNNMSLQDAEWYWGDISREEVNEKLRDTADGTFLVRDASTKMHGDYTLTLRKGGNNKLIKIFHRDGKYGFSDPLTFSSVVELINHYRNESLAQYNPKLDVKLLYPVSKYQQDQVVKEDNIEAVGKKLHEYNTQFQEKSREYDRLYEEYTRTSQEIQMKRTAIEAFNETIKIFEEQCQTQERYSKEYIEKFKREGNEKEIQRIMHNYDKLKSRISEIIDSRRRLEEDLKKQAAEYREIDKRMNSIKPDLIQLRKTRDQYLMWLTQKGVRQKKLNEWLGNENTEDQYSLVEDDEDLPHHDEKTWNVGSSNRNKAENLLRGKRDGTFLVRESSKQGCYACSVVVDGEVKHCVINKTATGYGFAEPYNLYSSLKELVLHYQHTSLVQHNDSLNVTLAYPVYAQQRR
The nature of assay [2]: Intrinsic reactivity of the inhibitors (kchem) with βME measured with HPLC. It counts as physicochemical. As to conditions: 1 mM inhibitor + 600 mM βME, n = 3.
Setting [3] is: maximum potential rate of covalent bond formation, global fitting with KinTek.

Procedure for p110α (PI3Kα): Maximum potential rate of covalent bond formation (kinact) and dissociation constant of the first reversible binding (Ki) of compounds for p110α were determined by LanthaScreen Technology (Life Technologies). The calculation of kinetic parameters was carried out through global fitting for numerical integration by using KinTek Global Kinetic Explorer modelling software^26-31.

For the molecule `CC(C)=CC(=O)CCCC(=O)N1CCC(C(=O)N2CCN(c3nc(-c4cnc(N)cc4C(F)(F)F)nc(N4CCOCC4)n3)CC2)CC1` [Compound 71, 1-(4-(4-(4-(6-amino-4-(trifluoromethyl)pyridin-3-yl)-6-morpholino-1,3,5-triazin-2-yl)piperazine-1-carbonyl)piperidin-1-yl)-7-methyloct-6-ene-1,5-dione], in assay [1], the negative-log IC50 (pIC50) is 6.95. For the molecule `CC(C)=CC(=O)CCCC(=O)N1CC[C@@H](C(=O)N2CCN(c3nc(-c4cnc(N)cc4C(F)(F)F)nc(N4CCOCC4)n3)CC2)C1` [Compound 90, (R)-1-(3-(4-(4-(6-amino-4-(trifluoromethyl)pyridin-3-yl)-6-morpholino-1,3,5-triazin-2-yl)piperazine-1-carbonyl)pyrrolidin-1-yl)-7-methyloct-6-ene-1,5-dione], the pIC50 in assay [1] is 7.03. Regarding `CCC(=O)N1CCC(C(=O)NCC(=O)N2CCN(c3nc(-c4cnc(N)nc4C(F)F)nc(N4CCOCC4)n3)CC2)CC1` [Compound 44, N-(2-(4-(4-(2-amino-4-(difluoromethyl)pyrimidin-5-yl)-6-morpholino-1,3,5-triazin-2-yl)piperazin-1-yl)-2-oxoethyl)-1-propionylpiperidine-4-carboxamide], on p110α (PI3Kα) (global fitting with KinTek), the pKi is 8.59. Further, the pIC50 in assay [1] was 6.70. As to `CC(C)=CC(=O)CCC(=O)N1CC(CN2CCN(c3nc(-c4cnc(N)nc4C(F)F)nc(N4CCOCC4)n3)CC2)C1` [Compound 95, 1-(3-((4-(4-(2-amino-4-(difluoromethyl)pyrimidin-5-yl)-6-morpholino-1,3,5-triazin-2-yl)piperazin-1-yl)methyl)azetidin-1-yl)-6-methylhept-5-ene-1,4-dione], the negative-log IC50 (pIC50) in assay [1] is 7.48. Regarding `CC(C)=CC(=O)NCCCC(=O)N1CCN(c2nc(-c3cnc(N)nc3C(F)F)nc(N3CCOCC3)n2)CC1` [Compound 17, N-(4-(4-(4-(2-amino-4-(difluoromethyl)pyrimidin-5-yl)-6-morpholino-1,3,5-triazin-2-yl)piperazin-1-yl)-4-oxobutyl)-3-methylbut-2-enamide], the “kchem (intrinsic reactivity of the inhibitors)” value in assay [2] was <<1.00 × 10^−7 M^−1 · s^−1.

For `CC(C)=CC(=O)CCCC(=O)N1CC[C@H](C(=O)N2CCN(c3nc(-c4cnc(N)cc4C(F)(F)F)nc(N4CCOCC4)n3)CC2)C1` [Compound 85, (S)-1-(3-(4-(4-(6-amino-4-(trifluoromethyl)pyridin-3-yl)-6-morpholino-1,3,5-triazin-2-yl)piperazine-1-carbonyl)pyrrolidin-1-yl)-7-methyloct-6-ene-1,5-dione], the negative logarithm of the IC50 (pIC50) in assay [1] is 7.14. For `C=CC(=O)CCCCC(=O)N1CCN(c2nc(-c3cnc(N)nc3C(F)F)nc(N3CCOCC3)n2)CC1` [Compound 1, 1-(4-(4-(2-amino-4-(difluoromethyl)pyrimidin-5-yl)-6-morpholino-1,3,5-triazin-2-yl)piperazin-1-yl)oct-7-ene-1,6-dione], the pKi on p110α (PI3Kα) (global fitting with KinTek) is 8.23. Besides, the kinact on p110α (PI3Kα) (setting [3]) amounted to 0.0245 s⁻¹. In addition, the kinact/KI on p110α (PI3Kα) was found to be 4.2e+06 M⁻¹ s⁻¹. Moreover, in assay [2], the “kchem (intrinsic reactivity of the inhibitors)” value is >>1.00 × 10^−1 M^−1 · s^−1. Take `CC(C)=CC(=O)CCCC(=O)N1CCC(CN2CCN(c3nc(-c4cnc(N)cc4C(F)(F)F)nc(N4CCOCC4)n3)CC2)CC1` [Compound 78, 1-(4-((4-(4-(6-amino-4-(trifluoromethyl)pyridin-3-yl)-6-morpholino-1,3,5-triazin-2-yl)piperazin-1-yl)methyl)piperidin-1-yl)-7-methyloct-6-ene-1,5-dione]: the negative logarithm of the IC50 (pIC50) in assay [1] is 6.75.

On to `CC(C)=CC(=O)CCCC(=O)N1CC(C(=O)N2CCN(c3nc(-c4cnc(N)nc4C(F)F)nc(N4CCOCC4)n3)CC2)C1` [Compound 94, 1-(3-(4-(4-(2-amino-4-(difluoromethyl)pyrimidin-5-yl)-6-morpholino-1,3,5-triazin-2-yl)piperazine-1-carbonyl)azetidin-1-yl)-7-methyloct-6-ene-1,5-dione], for which, in assay [1], the negative-log IC50 (pIC50) was 7.92. As to `C=CC(=O)N(C)CCCC(=O)N1CCN(c2nc(-c3cnc(N)nc3C(F)F)nc(N3CCOCC3)n2)CC1` [Compound 7, N-(4-(4-(4-(2-amino-4-(difluoromethyl)pyrimidin-5-yl)-6-morpholino-1,3,5-triazin-2-yl)piperazin-1-yl)-4-oxobutyl)-N-methylacrylamide], the negative-log Ki (pKi) on p110α (PI3Kα) (global fitting with KinTek) was 8.14. Further, on p110α (PI3Kα), the kinact was 6.9e-05 s⁻¹ and the kinact/KI was determined as 9600 M⁻¹ s⁻¹. In assay [2], the “kchem (intrinsic reactivity of the inhibitors)” value stood at 0.000228 M⁻¹ s⁻¹. As for `CC(C)=CC(=O)CCC(=O)N1CC[C@H](C(=O)N2CCN(c3nc(-c4cnc(N)nc4C(F)F)nc(N4CCOCC4)n3)CC2)C1` [Compound 81, (S)-1-(3-(4-(4-(2-amino-4-(difluoromethyl)pyrimidin-5-yl)-6-morpholino-1,3,5-triazin-2-yl)piperazine-1-carbonyl)pyrrolidin-1-yl)-6-methylhept-5-ene-1,4-dione], the pIC50 in assay [1] is 7.62. Same read-out and setting: in the case of `CC(C)=CC(=O)CCC(=O)N1CCC(CN2CCN(c3nc(-c4cnc(N)nc4C(F)F)nc(N4CCOCC4)n3)CC2)CC1` [Compound 72, 1-(4-((4-(4-(2-amino-4-(difluoromethyl)pyrimidin-5-yl)-6-morpholino-1,3,5-triazin-2-yl)piperazin-1-yl)methyl)piperidin-1-yl)-6-methylhept-5-ene-1,4-dione] it was 7.34. For the molecule `CC(C)=CC(=O)CCC(=O)N1CC(C(=O)N2CCN(c3nc(-c4cnc(N)nc4C(F)F)nc(N4CCOCC4)n3)CC2)C1` [Compound 92, 1-(3-(4-(4-(2-amino-4-(difluoromethyl)pyrimidin-5-yl)-6-morpholino-1,3,5-triazin-2-yl)piperazine-1-carbonyl)azetidin-1-yl)-6-methylhept-5-ene-1,4-dione], in assay [1], the negative logarithm of the IC50 (pIC50) was 7.47. Turning to `CC(C)=CC(=O)CCC(=O)N1CC[C@@H](C(=O)N2CCN(c3nc(-c4cnc(N)nc4C(F)F)nc(N4CCOCC4)n3)CC2)C1` [Compound 86, (R)-1-(3-(4-(4-(2-amino-4-(difluoromethyl)pyrimidin-5-yl)-6-morpholino-1,3,5-triazin-2-yl)piperazine-1-carbonyl)pyrrolidin-1-yl)-6-methylhept-5-ene-1,4-dione], the negative logarithm of the IC50 (pIC50) in assay [1] was 7.77. In the case of `N#C/C(=C/C1CC1)C(=O)N1CCC(COCC(=O)N2CCN(c3nc(-c4cnc(N)nc4C(F)F)nc(N4CCOCC4)n3)CC2)CC1` [Compound 118, (Z)-2-(4-((2-(4-(4-(2-amino-4-(difluoromethyl)pyrimidin-5-yl)-6-morpholino-1,3,5-triazin-2-yl)piperazin-1-yl)-2-oxoethoxy)methyl)piperidine-1-carbonyl)-3-cyclopropylacrylonitrile], the negative-log Ki (pKi) at p110α (PI3Kα) (global fitting with KinTek) is 9.00. Further, the maximal inactivation rate constant (kinact) at p110α (PI3Kα) (setting [3]) was 0.0108 s⁻¹. In addition, the kinact/KI on p110α (PI3Kα) came out at 1.08e+07 M⁻¹ s⁻¹. Moreover, the pIC50 in assay [1] is 8.22. Turning to `CC(C)CC(=O)CCCC(=O)N1CCC(C(=O)N2CCN(c3nc(-c4cnc(N)nc4C(F)F)nc(N4CCOCC4)n3)CC2)CC1` [Compound 70, 1-(4-(4-(4-(2-amino-4-(difluoromethyl)pyrimidin-5-yl)-6-morpholino-1,3,5-triazin-2-yl)piperazine-1-carbonyl)piperidin-1-yl)-7-methyloctane-1,5-dione], in assay [1], the pIC50 is 7.20.

On to `CC(C)=CC(=O)CCCC(=O)N1CCC(C(=O)N2CCN(c3nc(-c4cnc(N)nc4C(F)F)nc(N4CCOCC4)n3)CC2)CC1` [Compound 69, 1-(4-(4-(4-(2-amino-4-(difluoromethyl)pyrimidin-5-yl)-6-morpholino-1,3,5-triazin-2-yl)piperazine-1-carbonyl)piperidin-1-yl)-7-methyloct-6-ene-1,5-dione], for which the negative logarithm of the IC50 (pIC50) in assay [1] is 7.51. Still for that read-out and setting: in the case of `CC(C)=CC(=O)CCCC(=O)N1CC(CN2CCN(c3nc(-c4cnc(N)nc4C(F)F)nc(N4CCOCC4)n3)CC2)C1` [Compound 97, 1-(3-((4-(4-(2-amino-4-(difluoromethyl)pyrimidin-5-yl)-6-morpholino-1,3,5-triazin-2-yl)piperazin-1-yl)methyl)azetidin-1-yl)-7-methyloct-6-ene-1,5-dione] it was 7.77; in that of `CC(C)=CC(=O)CCCC(=O)N1CC[C@H](C(=O)N2CCN(c3nc(-c4cnc(N)nc4C(F)F)nc(N4CCOCC4)n3)CC2)C1` [Compound 84, (S)-1-(3-(4-(4-(2-amino-4-(difluoromethyl)pyrimidin-5-yl)-6-morpholino-1,3,5-triazin-2-yl)piperazine-1-carbonyl)pyrrolidin-1-yl)-7-methyloct-6-ene-1,5-dione], 7.96.

On to `CC(C)=CC(=O)CCCC(=O)N1CC[C@@H](C(=O)N2CCN(c3nc(-c4cnc(N)nc4C(F)F)nc(N4CCOCC4)n3)CC2)C1` [Compound 89, (R)-1-(3-(4-(4-(2-amino-4-(difluoromethyl)pyrimidin-5-yl)-6-morpholino-1,3,5-triazin-2-yl)piperazine-1-carbonyl)pyrrolidin-1-yl)-7-methyloct-6-ene-1,5-dione], for which the negative-log IC50 (pIC50) in assay [1] was 8.17.

Regarding `CN(C)C/C=C/C(=O)N1CCC(C(=O)N(C)CC(=O)N2CCN(c3nc(-c4cnc(N)nc4C(F)F)nc(N4CCOCC4)n3)CC2)CC1` [Compound 56, (E)-N-(2-(4-(4-(2-amino-4-(difluoromethyl)pyrimidin-5-yl)-6-morpholino-1,3,5-triazin-2-yl)piperazin-1-yl)-2-oxoethyl)-1-(4-(dimethylamino)but-2-enoyl)-N-methylpiperidine-4-carboxamide], the negative logarithm of the IC50 (pIC50) in assay [1] was 6.05.
